# Source: patent publication US20080057529A1, “Method for Identifying Histone Deacetylase Inhibitors” (priority 2003, published 2008)
# Experiments:
# p21 minimal promoter = experiment: Transient transfection of HeLa cells with p21m-SEAP reporter plasmid, SEAP activity; assay type: cell-based, human; settings: Apicidin 1 μM; for Fold Induct. (SEAP norm) / Fold induct. (SEAP) / SEAP (fold ind) / SEAP norm.-bckg/RLU norm (fold ind): vs DMSO
# Procedure: To determine whether the p21 minimal promoter was responsive to HDAC inhibitors, a reporter plasmid containing the secreted alkaline phosphatase gene (SEAP) operably linked to the p21 minimal promoter (−182 through +25), pcDNA3-21m-SEAP, was tested in transient transfection experiments of HeLa cells. […] All data summarized in Tables 4 through 7 were obtained by normalizing the total amount of transfected DNA to 2.1 μg using a promoterless plasmid.
# endogenous p21 = experiment: Induction of endogenous p21 in HeLa cells, immunoblot; assay type: cell-based, human; settings: Homo sapiens, 13 hour treatment, immunoblot densitometry, read-out: Endogenous p2 EC50
# Procedure: Induction of endogenous p21 and acetylation of core histones (inhibition of HDAC activity) was as follows. Dose-response experiments were performed in HeLa cells with different classes of known HDAC inhibitors. […] An α-tubulin-specific antibody (Sigma, St. Louis, Mo.; catalog number: T9026) was used as an internal standard. Quantitative data were obtained by densitometric analysis of X-ray films and were normalized for the internal standard values.
# [1] = Table 5, TSA 300 nM, P21m-SEAP 0.1 μg DNA
# [2] = Table 5, TSA 300 nM, P21m-SEAP 0.2 μg DNA
# [3] = Table 5, TSA 300 nM, P21m-SEAP 0.5 μg DNA
# [4] = Table 5, TSA 300 nM, P21m-SEAP 1 μg DNA
# [5] = Table 5, TSA 300 nM, P21m-SEAP 2 μg DNA
compound,measurement,setting,value
CCC(=O)CCCCC[C@@H]1NC(=O)[C@H]2CCCCN2C(=O)[C@H]([C@@H](C)CC)NC(=O)[C@H](Cc2cn(OC)c3ccccc23)NC1=O [Apicidin],SEAP activity normalised to total protein,"p21 minimal promoter; Table 4, P21m-SEAP 0 μg DNA",5683
same,Fold Induct. (SEAP norm),"p21 minimal promoter; Table 4, P21m-SEAP 0 μg DNA",4.901 fold
same,Fold induct. (SEAP),"p21 minimal promoter; Table 4, P21m-SEAP 0 μg DNA",3.5 fold
same,SEAP (10 min),"p21 minimal promoter; Table 4, P21m-SEAP 0.1 μg DNA (total DNA 2.1 μg)",41278
same,SEAP activity normalised to total protein,"p21 minimal promoter; Table 4, P21m-SEAP 0.1 μg DNA",27518.67
same,Fold Induct. (SEAP norm),"p21 minimal promoter; Table 4, P21m-SEAP 0.1 μg DNA",7.691 fold
same,Fold induct. (SEAP),"p21 minimal promoter; Table 4, P21m-SEAP 0.1 μg DNA",4.8 fold
same,SEAP (10 min),"p21 minimal promoter; Table 4, P21m-SEAP 0.2 μg DNA (total DNA 2.1 μg)",33449
same,SEAP activity normalised to total protein,"p21 minimal promoter; Table 4, P21m-SEAP 0.2 μg DNA",16724.5
same,Fold Induct. (SEAP norm),"p21 minimal promoter; Table 4, P21m-SEAP 0.2 μg DNA",14.9372 fold
same,Fold induct. (SEAP),"p21 minimal promoter; Table 4, P21m-SEAP 0.2 μg DNA",10.3 fold
same,SEAP (10 min),"p21 minimal promoter; Table 4, P21m-SEAP 0.5 μg DNA (total DNA 2.1 μg)",81729
same,SEAP activity normalised to total protein,"p21 minimal promoter; Table 4, P21m-SEAP 0.5 μg DNA",54486
same,Fold Induct. (SEAP norm),"p21 minimal promoter; Table 4, P21m-SEAP 0.5 μg DNA",19.2643 fold
same,Fold induct. (SEAP),"p21 minimal promoter; Table 4, P21m-SEAP 0.5 μg DNA",9.6 fold
same,SEAP (10 min),"p21 minimal promoter; Table 4, P21m-SEAP 1 μg DNA (total DNA 2.1 μg)",85405
same,SEAP activity normalised to total protein,"p21 minimal promoter; Table 4, P21m-SEAP 1 μg DNA",61003.57
same,Fold Induct. (SEAP norm),"p21 minimal promoter; Table 4, P21m-SEAP 1 μg DNA",17.5478 fold
same,Fold induct. (SEAP),"p21 minimal promoter; Table 4, P21m-SEAP 1 μg DNA",8.8 fold
same,SEAP (10 min),"p21 minimal promoter; Table 4, P21m-SEAP 2 μg DNA (total DNA 2.1 μg)",795345
same,SEAP activity normalised to total protein,"p21 minimal promoter; Table 4, P21m-SEAP 2 μg DNA",441858.3
same,Fold Induct. (SEAP norm),"p21 minimal promoter; Table 4, P21m-SEAP 2 μg DNA",15.3076 fold
same,Fold induct. (SEAP),"p21 minimal promoter; Table 4, P21m-SEAP 2 μg DNA",9.8 fold
same,SEAP (10 min),"p21 minimal promoter; Table 5, TSA 300 nM, P21m-SEAP 0 μg DNA (total DNA 2.1 μg)",2133
same,SEAP (fold ind),"p21 minimal promoter; Table 5, TSA 300 nM, P21m-SEAP 0 μg DNA",1.8 fold
same,SEAP norm-bckg/RLU norm,p21 minimal promoter; [1],"4,740.65"
same,SEAP (10 min),"p21 minimal promoter; Table 5, TSA 300 nM, P21m-SEAP 0.1 μg DNA (total DNA 2.1 μg)",5661
same,SEAP (fold ind),p21 minimal promoter; [1],3.3 fold
same,SEAP norm.-bckg/RLU norm (fold ind),p21 minimal promoter; [1],10.7 fold
same,SEAP norm-bckg/RLU norm,p21 minimal promoter; [2],"10,064.04"
same,SEAP (10 min),"p21 minimal promoter; Table 5, TSA 300 nM, P21m-SEAP 0.2 μg DNA (total DNA 2.1 μg)",10279
same,SEAP (fold ind),p21 minimal promoter; [2],3.75 fold
same,SEAP norm.-bckg/RLU norm (fold ind),p21 minimal promoter; [2],16.4 fold
same,SEAP norm-bckg/RLU norm,p21 minimal promoter; [3],"24,280.99"
same,SEAP (10 min),"p21 minimal promoter; Table 5, TSA 300 nM, P21m-SEAP 0.5 μg DNA (total DNA 2.1 μg)",16014
same,SEAP (fold ind),p21 minimal promoter; [3],6.25 fold
same,SEAP norm.-bckg/RLU norm (fold ind),p21 minimal promoter; [3],17.9 fold
same,SEAP norm-bckg/RLU norm,p21 minimal promoter; [4],"68,122.56"
same,SEAP (10 min),"p21 minimal promoter; Table 5, TSA 300 nM, P21m-SEAP 1 μg DNA (total DNA 2.1 μg)",48928
same,SEAP (fold ind),p21 minimal promoter; [4],6.8 fold
same,SEAP norm.-bckg/RLU norm (fold ind),p21 minimal promoter; [4],16.9 fold
same,SEAP norm-bckg/RLU norm,p21 minimal promoter; [5],"219,589.86"
same,SEAP (10 min),"p21 minimal promoter; Table 5, TSA 300 nM, P21m-SEAP 2 μg DNA (total DNA 2.1 μg)",108562
same,SEAP (fold ind),p21 minimal promoter; [5],4.5 fold
same,SEAP norm.-bckg/RLU norm (fold ind),p21 minimal promoter; [5],17.3 fold
same,EC50,endogenous p21,70 nM
